molecular target: Platelet-activating factor receptor (Oryctolagus cuniculus); experiment: In vitro inhibition of PAF-induced aggregation of rabbit washed platelets.

IC50 [nM] | SMILES
22 | CCOC(=O)C1=C(c2ccc(-n3c(C)nc4ccncc43)cc2)N=C(C)C(C(=O)Nc2ccccn2)C1c1ccccc1Cl (stereo unspecified)
30 | CCOC(=O)C1=C(c2ccc(-n3c(C(F)(F)F)nc4cnccc43)cc2)N=C(C)C(C(=O)Nc2ccccn2)C1c1ccccc1Cl (stereo unspecified)
14 | CCOC(=O)C1=C(c2ccc(-n3c(C)nc4cnccc43)cc2)N=C(C)C(C(=O)O)C1c1ccccc1Cl (stereo unspecified)
25 | CCOC(=O)C1=C(c2ccc(-n3c(C)nc4cnccc43)cc2)N=C(C)C(C(=O)Nc2ccccn2)C1c1ccc(C#N)cc1 (stereo unspecified)
33 | CCOC(=O)C1=C(c2ccc(-n3c(C)nc4cnccc43)cc2)N=C(C)C(C(=O)Nc2ccccn2)C1c1cccnc1 (stereo unspecified)
14 | CCOC(=O)C1=C(c2ccc(-n3c(C)nc4cnccc43)cc2)N=C(C)C(C(=O)Nc2ccccn2)C1c1ccccn1 (stereo unspecified)
13 | CCOC(=O)C1=C(c2ccc(-n3c(C)nc4cnccc43)cc2)N=C(C)C(C(=O)Nc2ccccn2)C1c1cccnc1Cl (stereo unspecified)
3.1 | CCOC(=O)C1=C(c2ccc(-n3c(C)nc4cnccc43)cc2)N=C(C)C(C(=O)Nc2ccccn2)C1c1csc2ccccc12 (stereo unspecified)
3.2 | CCOC(=O)C1=C(c2ccc(-n3c(C)nc4cnccc43)cc2)N=C(C)C(C(=O)Nc2ccccn2)C1c1cccc2c1OCO2 (stereo unspecified)
190 | CCCCc1nc2cnccc2n1-c1ccc(C2=C(C(=O)OCC)C(c3ccccc3Cl)C(C(=O)Nc3ccccn3)C(C)=N2)cc1 (stereo unspecified)
2.3 | CCOC(=O)C1=C(c2ccc(-n3c(C)nc4cnccc43)cc2)N=C(C)C(C(=O)Nc2ccccn2)C1c1ccccc1OC(F)(F)F (stereo unspecified)
28 | CCOC(=O)C1=C(c2ccc(-n3c(C)nc4cccnc43)cc2)N=C(C)C(C(=O)Nc2ccccn2)C1c1ccccc1Cl (stereo unspecified)

The remaining lines, values behind:

SMILES | IC50 [nM]
CCOC(=O)C1=C(c2ccc(-n3c(C)nc4cnccc43)cc2)N=C(C)C(C(=O)OC(C)(C)C)C1c1ccccc1Cl (stereo unspecified) | 1.3
CCOC(=O)C1=C(c2ccc(-c3ocnc3C)cc2)N=C(C)C(C(=O)Nc2ccccn2)C1c1ccccc1Cl (stereo unspecified) | 200
CCOC(=O)C1=C(c2ccc(-n3c(C)nc4cnccc43)cc2)N=C(C)C(C(N)=O)C1c1ccccc1Cl (stereo unspecified) | 5.6
CCOC(=O)C1=C(c2ccc(-n3ccnc3C)cc2)N=C(C)C(C(=O)Nc2ccccn2)C1c1ccccc1Cl (stereo unspecified) | 23
CCOC(=O)C1=C(c2ccc(-n3c(C)nc4c(OC)ncnc43)cc2)N=C(C)C(C(=O)Nc2ccccn2)C1c1ccccc1Cl (stereo unspecified) | 270
CCOC(=O)C1=C(c2ccc(-n3c(C)nc4cnccc43)cc2)N=C(C)C(C(=O)OC)C1c1ccccc1Cl (stereo unspecified) | 1.6
CCOC(=O)C1=C(c2ccc(-n3c(C)nc4cnccc43)cc2)N=C(C)C(C(=O)NC(C)(C)C)C1c1ccccc1Cl (stereo unspecified) | 3.2
CCOC(=O)C1=C(c2ccc(-n3nc(C)cc3C)cc2)N=C(C)C(C(=O)Nc2ccccn2)C1c1ccccc1Cl (stereo unspecified) | > 10000
CCOC(=O)C1=C(c2ccc(-n3c(C)nnc3C)cc2)N=C(C)C(C(=O)Nc2ccccn2)C1c1ccccc1Cl (stereo unspecified) | 12
CCOC(=O)C1=C(c2ccc(-c3c(C)nc4ccccn34)cc2)N=C(C)C(C(=O)Nc2ccccn2)C1c1ccccc1Cl (stereo unspecified) | 2.1
CCOC(=O)C1=C(c2ccc(-n3cnc(C)c3)cc2)N=C(C)C(C(=O)Nc2ccccn2)C1c1ccccc1Cl (stereo unspecified) | 580
CCOC(=O)C1=C(c2ccc(-c3c(C)nc4sccn34)cc2)NC(C)=C(C(=O)Nc2ccccn2)C1c1ccccc1Cl (stereo unspecified) | 5
CCOC(=O)C1=C(c2ccc(-n3cc(C)nc3C)cc2)N=C(C)C(C(=O)Nc2ccccn2)C1c1ccccc1Cl (stereo unspecified) | 13
CCOC(=O)C1=C(c2ccc(-n3c(C)nc4c(C)nc(C)cc43)cc2)N=C(C)C(C(=O)Nc2ccccn2)C1c1ccccc1Cl (stereo unspecified) | 5.9

From BindingDB's records for doi:10.1021/jm00095a005 (Pfizer, 1992)
